Reference: patent US6358701B1, “DNA molecules encoding Ctenocephalides felis glutamate gated chloride channels” (Merck & Co., Inc., priority 1997, dated 2002)
pEC50: −log10 of the molar value. Where two headings read alike, the source gives them in different places.

Legend:
[1] = tested on: CfGluCl-1 (C. felis GluCl channel); test: Two microelectrode voltage clamp of Xenopus oocytes expressing CfGluCl-1; type: cell-based, Ctenocephalides felis; settings: for ability to activate CfGluCl-1: agonists for other types of ligand-gated chloride channels
Procedure: The full-length cDNA encoding CfGluCl-1 in plasmid vector pBluescript (Stratagene, LaJolla, Calif.) is linearized and capped cRNA transcripts are synthesized using appropriate oligonucleotide primers and the mMESSAGE mMACHINE in vitro RNA transcription kit (Ambion). Xenopus laevis oocytes were prepared and injected using standard methods as described (Arena et al., 1991, Mol. Pharmacol. 40: 368-374; Arena et al, 1992, Mol. Brain Res. 15: 339-348). Adult female Xenopus laevis were anesthetized with 0.17% tricaine methanesulfonate and the ovaries were surgically removed and placed in a dish consisting of (mM): NaCl 82.5, KCl 2, MgCl2 1, CaCl2 1.8, HEPES 5 adjusted to pH 7.5 with NaOH (OR-2). Ovarian lobes were broken open, rinsed several times, and gently shaken in OR-2 containing 0.2% collagenase (Sigma, Type IA) for 2-5 hours. When approximately 50% of the follicular layers were removed, Stage V and VI oocytes were selected and placed in media consisting of (mM): NaCl 86, KCl 2, MgCl2 1, CaCl2 1.8, HEPES 5, Na pyruvate 2.5, theophylline 0.5, gentamicin 0.1 adjusted to pH 7.5 with NaOH (ND-96) for […] before injection. For most experiments, oocytes were injected with 10 ng of cRNA in 50 nl of RNase free water. Control oocytes were injected with 50 nl of water. Oocytes were incubated for 1-5 days in ND-96 supplemented with […] gentamycin, 2.5 mM Na pyruvate and 0.5 mM theophylline before recording. Incubations and collagenase digestion were carried out at […].
Voltage-clamp studies were conducted with the two microelectrode voltage clamp technique using a Dagan CA1 amplifier (Dagan Instruments, Minneapolis, Minn.). The current passing microelectrodes were filled with 0.7M KCl plus 1.7M K3-citrate and the voltage recording microelectrodes were filled with 1.0M KCl. The extracellular solution for most experiments was saline consisting of (mM): NaCl 96, BaCl2 3.5, MgCl2 0.5, CaCl2 0.1, HEPES 5, adjusted to pH 7.5 with NaOH. The extracellular chloride concentration was reduced in some experiments by equimolar replacement of NaCl with the sodium salt of the indicated anion. Experiments were conducted at 21-24° C. Data were acquired using the program Pulse and most analysis was performed with the companion program Pulsefit (Instrutech Instruments, Great Neck, N.Y.) or with Igor Pro (Wavemetrics, Lake Oswego, Oreg.). Data were filtered (fc, −3db) at 1 kHz, unless otherwise indicated.
FIG. 5A and FIG. 5B show the activation of CfGluCl-1 by glutamate. […] The duration of exposure to glutamate is indicated by the solid bar at top. FIG. 5B shoes the concentration-response curve for glutamate. Peak outward current is plotted vs. glutamate concentration. The solid curve is the best fit to the equation I/Imax={1+(EC50/[glutamate])^n}^−1. […] Agonists for other types of ligand-gated chloride channels were also tested for the ability to activate
Each curve represents the difference between the current measured with and without 10 μM glutamate. The voltage was ramped from −120 to +60 mV at 1 volt/second. Chloride concentration was reduced from 104 mM to 8.2 mM by equimolar substitution of NaCl by Na-methanesulfonate or Na-gluconate. Each current-voltage relationship was fit to a seventh order polynomial using non-linear least squares analysis and the reversal potential was taken as the x-intercept of this polynomial.
A single [IVM-PO4] was tested on each oocyte. The ordinate is the maximal current induced by IVM-PO4 normalized by the peak current induced by 100 μM glutamate, a maximally effective concentration. The error bars indicate ±S.E.M. The holding potential was 0 mV for both sets of measurements. The filled circles represent data for CfGluCl-1.
(1) I=Iivm,max/{1+(EC50/[IVM-PO4])^n}

DmGluCl1 = DmGluCl1 (Drosophila melanogaster, UniProt Q94900); settings: holding potential −80 mV; cited from earlier work
Chain of DmGluCl1 (Q94900 23-456 S345N): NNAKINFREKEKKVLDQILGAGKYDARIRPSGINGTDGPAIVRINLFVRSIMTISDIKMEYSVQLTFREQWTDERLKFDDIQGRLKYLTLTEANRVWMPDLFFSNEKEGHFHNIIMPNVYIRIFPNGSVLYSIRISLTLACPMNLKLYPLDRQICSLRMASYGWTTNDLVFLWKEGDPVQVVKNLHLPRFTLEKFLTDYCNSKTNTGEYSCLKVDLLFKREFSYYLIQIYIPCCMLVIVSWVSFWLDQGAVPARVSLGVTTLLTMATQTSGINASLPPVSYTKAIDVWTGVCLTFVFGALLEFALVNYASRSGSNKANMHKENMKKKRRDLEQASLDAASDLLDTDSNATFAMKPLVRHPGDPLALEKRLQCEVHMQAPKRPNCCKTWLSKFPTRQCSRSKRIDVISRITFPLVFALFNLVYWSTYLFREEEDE

With ivermectin phosphate [IVM-PO4] the increase in potency ([1]; 0 mV measurements vs. earlier −80 mV data) was 10 fold, the “agonist activity at the flea GluCl channel encoded by CfGluCl-1” value ([1]; FIGS. 7A and B) was “agonist” and the “Iivm,max (maximal current normalized by the peak current induced by 100 μM glutamate)” value ([1]; holding potential 0 mV) was 0.718. The pEC50 ([1]; holding potential 0 mV, fit to equation (1), read-out: EC50 for activation of CfGluCl-1) was 8.53, the pEC50 (DmGluCl1) was 7.39 and the “Iivm,max on DmGluCl1” value (DmGluCl1) was 0.35. The “n (exponent of equation (1)) on DmGluCl1” value (DmGluCl1) was 1.2.

For `CC(=O)OCC[N+](C)(C)C` [acetylcholine], the “ability to activate CfGluCl-1” value [1] was “inactive”.

In the case of `NCCCC(=O)O` [GABA], the “ability to activate CfGluCl-1” value [1] was “inactive”.

In the case of `N[C@@H](CCC(=O)O)C(=O)O` [glutamate], the pEC50 ([1]; experiment of FIG. 5B, fit to I/Imax={1+(EC50/[glutamate])^n}^−1, read-out: EC50 for activation of CfGluCl-1 (peak outward current vs. concentration)) was 5.03.

With `NCc1cc(=O)[nH]o1` [muscimol] the “ability to activate CfGluCl-1” value [1] was “inactive”.

In the case of `NCC(=O)O` [glycine], the “ability to activate CfGluCl-1” value [1] was “inactive”.

With `NCCc1c[nH]cn1` [histamine] the “ability to activate CfGluCl-1” value [1] was “inactive”.
